{"source": "patent US20130171198A1", "about": "“ANTIMICROBIAL AND VULNERARY ACTION PHARMACEUTICAL COMPOSITION FOR EXTERNAL APPLICATION AND ITS PRODUCTION PROCESS” (priority 2010, published 2013)", "key": {"[1]": {"assay": "Incision model, rabbits, external application of solution/suspension", "assay_type": "in vivo", "settings": "for Incision length (cm) Me: 2.5% fosfomycin solution or 5% composition suspension", "description": "(§1) The experiments were conducted using adult rabbits “Chinchilla” (males, weight 3-3.5 kg) and random bred guiney pigs (males, weight 0.8-0.9 kg) according to the “Regulations for test animals use” (USSR Ministry of health order supplement #755 from 12.08. 1977). There have been made several incisions with a sterile scalpel on the left and right side of the depilated coupling area (1.5% novocain solution was used for local anesthesia); incision 2 cm long and 0.8 cm deep with muscular layer seizure for guiney pigs and 2 cm long and 1 cm deep with muscular layer seizure for rabbits. Each day in 8 days period (starting with the very first day) the wounds of the animals control group was bathed with a sterile normal saline solution, were covered with a sterile tissue fixed with a plaster. The wounds of the test group animals were bathed with a sterile saline solution, then dried and then dusted with fosfomycin sterile powder uniform layer (2-3 mm) or a same layer pharmaceutical composition (for guiney pigs), the wounds of the test rabbits were irrigated with a sterile 2.5% fosfomycin solution or sterile 5% pharmaceutical composition suspension, after that they were dried and covered with a sterile tissue fixed with a plaster. The regenerative process dynamics was monitored during 9 days. The medics measured the length of the wound open area and made a visual evaluation of wound edges and walls, the presence and character of the exudates, necrosis presence. The test results can be seen in Tables No 2 and No 3. The statistical data processing has been made with a program Statistica 6.0. The experimental data are presented as median (Me), Low and High quartile (LQ-HQ), the difference authenticity has been calculated using Student t-criterion with p<0.05 values."}, "[2]": {"test_system": "infected S. aureus thermal burn", "assay": "Infected thermal burn model, guiney pigs", "assay_type": "in vivo", "settings": "for Necrosis area (cm^2) / Thermal burn area (cm^2): 2.5% solution or 5% suspension", "description": "The experiments were conducted using adult rabbits “Chinchilla” (males, weight 3-3.5 kg) and random bred guiney pigs (males, weight 0.8-0.9 kg) according to the “Regulations for test animals use” (USSR Ministry of health order supplement #755 from 12.08. 1977). There have been made several skin integument burnings with a warmed up on the burner flame metallic applicator on the left and right side of the depilated coupling area (1.5% novocain solution was used for local anesthesia) by attaching it to the skin and holding for 40 seconds. In the center of the ambustial area there has been intracutaneously inserted Staphylococcus aureus (ATCC No 25923 F-49) daily suspension with a 0.1 ml volume in a 10^10 CFU/ml dosage. Each day in 13 days period (starting with the very first day) the burnings of the animals control group was bathed with a sterile normal saline solution, dried and covered with a sterile tissue fixed with a plaster. The burnings of the test animals were irrigated with a sterile 2.5% fosfomycin solution or sterile 5% pharmaceutical composition suspension, after that they were dried and covered with a sterile tissue fixed with a plaster. The burnings condition dynamics was monitored during 14 days. The medics measured the burning wound surface and necrosis area in the center of the burning wound. You may see the results in the table No 4. The statistical data processing has been made with a program Statistica 6.0. The experimental data are presented as median (Me), Low and High quartile (LQ-HQ), the difference authenticity has been calculated using Student t-criterion with p<0.05 values."}, "[3]": {"assay": "Incision model, guiney pigs, external application of powder", "assay_type": "in vivo", "settings": "for Incision length (cm) Me: powder form, external application daily", "description": "as §1"}, "[4]": {"assay": "Fosfomycin sorption by BHSiO2 particles", "assay_type": "physicochemical", "from_the_text": "Fosfomycin sorption rate by BHSiO2 particles was 20-25%."}, "[5]": {"settings": "2.5% solution / 5% water suspension"}}}
{"smiles": "C[C@@H]1O[C@@H]1P(=O)(O)O", "note": "[Fosfomycin, fosfomycin]", "values": [{"measurement": "Incision length (cm) Me", "setting": "[1]; Day 2", "value": 0.5, "unit": "cm"}, {"measurement": "Incision length (cm) Me", "setting": "[1]; Day 6", "value": 0.4, "unit": "cm"}, {"measurement": "Incision length (cm) Me", "setting": "[1]; Day 9", "value": 0.25, "unit": "cm"}, {"measurement": "Incisions regeneration process versus control group", "setting": "[1]; [5]", "value": "authentically increase incisions regeneration process comparing to the control group"}, {"measurement": "Infected S. aureus thermal burn regeneration process versus control group", "setting": "[2]; [5]", "value": "authentically increase infected S. aureus thermal burn regeneration process comparing to the control group"}, {"measurement": "Necrosis area (cm^2)", "setting": "[2]; Day 2", "value": 0.0, "unit": "cm^2"}, {"measurement": "Thermal burn area (cm^2)", "setting": "[2]; Day 2", "value": 1.2, "unit": "cm^2"}, {"measurement": "Necrosis area (cm^2)", "setting": "[2]; Day 6", "value": 0.3, "unit": "cm^2"}, {"measurement": "Thermal burn area (cm^2)", "setting": "[2]; Day 6", "value": 0.8, "unit": "cm^2"}, {"measurement": "Necrosis area (cm^2)", "setting": "[2]; Day 9", "value": 0.25, "unit": "cm^2"}, {"measurement": "Thermal burn area (cm^2)", "setting": "[2]; Day 9", "value": 0.7, "unit": "cm^2"}, {"measurement": "Necrosis area (cm^2)", "setting": "[2]; Day 14", "value": 0.2, "unit": "cm^2"}, {"measurement": "Thermal burn area (cm^2)", "setting": "[2]; Day 14", "value": 0.4, "unit": "cm^2"}, {"measurement": "Incision length (cm) Me", "setting": "[3]; Day 2", "value": 0.9, "unit": "cm"}, {"measurement": "Incision length (cm) Me", "setting": "[3]; Day 6", "value": 0.5, "unit": "cm"}, {"measurement": "Incision length (cm) Me", "setting": "[3]; Day 9", "value": 0.3, "unit": "cm"}, {"measurement": "Incisions regeneration process versus control group", "setting": "[3]; powder forms", "value": "authentically increase incisions regeneration process comparing to the control group"}, {"measurement": "Fosfomycin sorption rate by BHSiO2 particles", "setting": "[4]", "value": "20-25%"}]}
